Tests used:
Assay in all cases: relative viability (nuclei count vs DMSO), 5 days (fraction); higher = more cells survive
[1] = compound: Cc1ccc(C(=O)N(CCCN)[C@@H](c2nc3cc(Cl)ccc3c(=O)n2Cc2ccccc2)C(C)C)cc1 [Ispinesib] + CS(=O)(=O)CCNCc1ccc(-c2ccc3ncnc(Nc4ccc(OCc5cccc(F)c5)c(Cl)c4)c3c2)o1 [Lapatinib] (partner 2 µM)
Summary of the method: (§1)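 Lung cancer cell lines, seeded in 1536-well plates, were treated the following day by pin tool with a single drug or with five library-drug doses (not always all listed) in √10 steps on top of a fixed anchor-drug dose. Cells were fixed and nuclei stained in one step after 5 days, and nuclei were counted. Relative viability is the nuclei count for treated wells divided by that for vehicle wells, reported as medians of duplicate plates.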

[2] = compound: Cc1ccc(C(=O)N(CCCN)[C@@H](c2nc3cc(Cl)ccc3c(=O)n2Cc2ccccc2)C(C)C)cc1 [Ispinesib] + O=C(c1cc(Cc2n[nH]c(=O)c3ccccc23)ccc1F)N1CCN(C(=O)C2CC2)CC1 [Olaparib] (partner 8 µM)
Summary of the method: as §1

[3] = compound: Cc1ccc(C(=O)N(CCCN)[C@@H](c2nc3cc(Cl)ccc3c(=O)n2Cc2ccccc2)C(C)C)cc1 [Ispinesib] + C[C@]1(O)C[C@@H](c2nc(-c3ccc4ccc(-c5ccccc5)nc4c3)c3c(N)nccn32)C1 [Linsitinib] (partner 1 µM)
Summary of the method: as §1

[4] = compound: Cc1ccc(C(=O)N(CCCN)[C@@H](c2nc3cc(Cl)ccc3c(=O)n2Cc2ccccc2)C(C)C)cc1 [Ispinesib] + CC(=O)c1c(C)c2cnc(Nc3ccc(N4CCNCC4)cn3)nc2n(C2CCCC2)c1=O [Palbociclib] (partner 0.5 µM)
Summary of the method: as §1

| Cell Line | relative viability ([1]; first compound 0.001 µM) | relative viability ([1]; first compound 0.003162 µM) | relative viability ([1]; first compound 0.01 µM) | relative viability ([1]; first compound 0.03162 µM) | relative viability ([1]; first compound 0.1 µM) | relative viability ([2]; first compound 0.001 µM) | relative viability ([2]; first compound 0.003162 µM) | relative viability ([2]; first compound 0.01 µM) | relative viability ([2]; first compound 0.03162 µM) | relative viability ([2]; first compound 0.1 µM) | relative viability ([3]; first compound 0.001 µM) | relative viability ([3]; first compound 0.003162 µM) | relative viability ([3]; first compound 0.01 µM) | relative viability ([3]; first compound 0.03162 µM) | relative viability ([3]; first compound 0.1 µM) | relative viability ([4]; first compound 0.001 µM) | relative viability ([4]; first compound 0.003162 µM) | relative viability ([4]; first compound 0.01 µM) | relative viability ([4]; first compound 0.03162 µM) | relative viability ([4]; first compound 0.1 µM) |
| --- | --- | --- | --- | --- | --- | --- | --- | --- | --- | --- | --- | --- | --- | --- | --- | --- | --- | --- | --- | --- |
| NCI-H1299 | 1.02 | 0.988 | 0.979 | 0.813 | 0.3 | 1.02 | 0.993 | 1.07 | 0.986 | 0.478 | 1.06 | 1.12 | 0.81 | 0.941 | 0.375 |  |  |  |  |  |
| NCI-H441 |  |  |  |  |  | 0.529 | 0.516 | 0.631 | 0.237 | 0.247 | 0.465 | 0.771 | 0.346 | 0.163 | 0.173 | 0.237 | 0.25 | 0.208 | 0.174 | 0.136 |
| LCLC-103H |  |  |  |  |  | 0.8 | 0.888 | 0.856 | 0.746 | 0.775 | 1.12 | 1.25 | 1.21 | 1.04 | 1.02 | 0.447 | 0.545 | 0.476 | 0.441 | 0.465 |
| IA-LM | 0.833 | 1.03 | 0.513 | 0.123 | 0.197 | 0.916 | 0.938 | 1.15 | 1.02 | 0.155 | 0.493 | 0.567 | 0.996 | 0.549 | 0.158 |  |  |  |  |  |
| NCI-H596 | 0.978 | 1.18 | 1.02 | 0.897 | 0.402 | 0.652 | 0.629 | 0.638 | 0.671 | 0.571 | 1.29 | 0.988 | 1.17 | 1.06 | 0.551 |  |  |  |  |  |
| A549 | 1.07 | 1.07 | 0.952 | 0.172 | 0.127 | 0.417 | 0.276 | 0.37 | 0.194 | 0.0705 | 0.628 | 0.551 | 0.769 | 0.434 | 0.0756 |  |  |  |  |  |
| NCI-H2170 | 0.265 | 0.252 | 0.269 | 0.182 | 0.214 | 0.593 | 0.679 | 0.651 | 0.481 | 0.444 |  |  |  |  |  | 0.402 | 0.36 | 0.431 | 0.282 | 0.257 |
| NCI-H1563 | 1.03 | 0.956 | 0.928 | 0.686 | 0.624 |  |  |  |  |  | 1.29 | 1.19 | 1.27 | 1.1 | 0.844 |  |  |  |  |  |
| Calu-6 | 1.24 | 0.955 | 0.526 | 0.217 | 0.256 | 0.56 |  | 0.422 | 0.193 | 0.192 | 0.998 |  | 0.712 | 0.297 | 0.133 |  |  |  |  |  |
| NCI-H1650 | 0.799 | 0.715 | 0.387 | 0.211 | 0.208 | 0.953 | 0.743 | 0.82 | 0.701 | 0.195 |  |  |  |  |  | 0.368 | 0.346 | 0.3 | 0.172 | 0.254 |
| NCI-H1648 |  |  |  |  |  | 1.04 | 1.07 | 0.751 | 0.889 | 0.0854 |  |  |  |  |  | 0.285 | 0.297 | 0.248 | 0.291 | 0.256 |
